What was measured:
[1] = tested on: Mycobacterium tuberculosis; test: Inhibition of Mycobacterium tuberculosis chorismate mutase expressed in Escherichia coli BL21 (DE3) assessed as conversion of chorismate to prephenate at 50 uM after 5 mins
[2] = (§1) Inhibition of Mycobacterium tuberculosis chorismate mutase expressed in Escherichia coli BL21 (DE3) assessed as conversion of chorismate to prephenate after 5 mins
[3] = tested on: Mycobacterium tuberculosis; test: as §1

Structure (SMILES) | inhibition [1] [%] | IC50 [2] [µM] | inhibition [3]
Cc1ccc(NS(C)(=O)=O)c(-c2cc3cc(C)ccc3n2S(C)(=O)=O)c1 | 42 | – | –
CS(=O)(=O)Nc1ccc(C(F)(F)F)cc1-c1cc2cc(C(F)(F)F)ccc2n1S(C)(=O)=O | 25 | – | –
CS(=O)(=O)Nc1ccccc1-c1cc2ccccc2n1S(C)(=O)=O | 40 | – | –
Cc1ccc(S(=O)(=O)Nc2ccc(F)cc2-c2cc3cc(F)ccc3n2S(=O)(=O)c2ccc(C)cc2)cc1 | 15 | – | –
Cc1ccc(S(=O)(=O)Nc2ccc(C(F)(F)F)cc2-c2cc3cc(C(F)(F)F)ccc3n2S(=O)(=O)c2ccc(C)cc2)cc1 | 12 | – | –
COc1ccc(CCNc2c([N+](=O)[O-])cc(C(=O)O)cc2S(N)(=O)=O)cc1OC | – | < 10 | –
Cc1ccc(S(=O)(=O)Nc2ccc(C)cc2-c2cc3cc(C)ccc3n2S(=O)(=O)c2ccc(C)cc2)cc1 | 15 | – | –
CC(=O)c1ccc(NS(C)(=O)=O)c(-c2cc3cc(C(C)=O)ccc3n2S(C)(=O)=O)c1 | 30 | – | –
COc1ccc(NS(C)(=O)=O)c(-c2cc3cc(OC)ccc3n2S(C)(=O)=O)c1 | 50 | – | –
Cc1ccc(S(=O)(=O)Nc2ccccc2-c2cc3ccccc3n2S(=O)(=O)c2ccc(C)cc2)cc1 | 12 | – | –
Cc1ccc(S(=O)(=O)Nc2ccc(Cl)cc2-c2cc3cc(Cl)ccc3n2S(=O)(=O)c2ccc(C)cc2)cc1 | 10 | – | –
CS(=O)(=O)Nc1ccc(Cl)cc1-c1cc2cc(Cl)ccc2n1S(C)(=O)=O | 45 | – | –
CS(=O)(=O)Nc1ccc(C#N)cc1-c1cc2cc(C#N)ccc2n1S(C)(=O)=O | 20 | – | –
CS(=O)(=O)Nc1ccc(F)cc1-c1cc2cc(F)ccc2n1S(C)(=O)=O | 69 | 17 | Dose-dependent effect
CS(=O)(=O)Nc1ccc([N+](=O)[O-])cc1-c1cc2cc([N+](=O)[O-])ccc2n1S(C)(=O)=O | 15 | – | –

Reference: ChEMBL document CHEMBL3217686, “A new route to indoles via in situ desilylationSonogashira strategy: identification of novel small molecules as potential anti-tuberculosis agents” (Medchemcomm, 2011)
